# Measurements from ChEMBL document CHEMBL3885881, “DrugMatrix”.
# Species: Rattus norvegicus
# Assay: DrugMatrix - Regimen: Daily Repeat
# Assay type: toxicity, organism-based, Sprague-Dawley
# Design: regimen Daily Repeat, gender Male, age 6-8 weeks
# Conditions: in vivo, po, route oral GAVAGE, vehicle .5 % CMC; for ABSOLUTE BASOPHIL / ABSOLUTE EOSINOPHIL / ABSOLUTE LYMPHOCYTE / ABSOLUTE MONOCYTE / ABSOLUTE SEGMENTED NEUTROPHIL / BASOPHIL / EOSINOPHIL / ERYTHROCYTE COUNT / HEMATOCRIT / HEMOGLOBIN / LEUKOCYTE COUNT / LYMPHOCYTE / MEAN CORPUSCULAR HEMOGLOBIN / MEAN CORPUSCULAR HEMOGLOBIN CONCENTRATION / MEAN CORPUSCULAR VOLUME / MONOCYTE / NEUTROPHIL / NUCLEATED RED BLOOD CELLS / PLATELET COUNT: tissue Blood; for ALANINE AMINOTRANSFERASE / ALBUMIN / ALKALINE PHOSPHATASE / ASPARTATE AMINOTRANSFERASE / BLOOD UREA NITROGEN / CARBON DIOXIDE / CHLORIDE / CHOLESTEROL / CREATINE PHOSPHOKINASE / CREATININE / GLUCOSE / LACTATE DEHYDROGENASE / LIPASE / PHOSPHORUS / POTASSIUM / SODIUM / TOTAL BILIRUBIN / TOTAL PROTEIN / URIC ACID: tissue Plasma
# [1] = 0 mg/kg, 72 h, dose level Control, time 3 day
# [2] = 0 mg/kg, 120 h, dose level Control, time 5 day
# [3] = 20 mg/kg, 72 h, dose level Low, time 3 day
# [4] = 20 mg/kg, 120 h, dose level Low, time 5 day
smiles,measurement,setting,value
Clc1ccc2c(c1)C(N1CCNCC1)=Nc1ccccc1O2 [AMOXAPINE],ABSOLUTE BASOPHIL,[1],0 CELLS/uL
same,ABSOLUTE EOSINOPHIL,[1],32.5 CELLS/uL
same,ABSOLUTE LYMPHOCYTE,[1],13494.17 CELLS/uL
same,ABSOLUTE MONOCYTE,[1],474 CELLS/uL
same,ABSOLUTE SEGMENTED NEUTROPHIL,[1],1932.67 CELLS/uL
same,BASOPHIL,[1],0%
same,EOSINOPHIL,[1],0.17%
same,ERYTHROCYTE COUNT,[1],5.45 x10E6/uL
same,HEMATOCRIT,[1],34.32%
same,HEMOGLOBIN,[1],13.82 G/DL
same,LEUKOCYTE COUNT,[1],15.93 x10E3/uL
same,LYMPHOCYTE,[1],84.83%
same,MEAN CORPUSCULAR HEMOGLOBIN,[1],25.38 pg
same,MEAN CORPUSCULAR HEMOGLOBIN CONCENTRATION,[1],40.27 G/DL
same,MEAN CORPUSCULAR VOLUME,[1],63.05 fL
same,MONOCYTE,[1],3%
same,NEUTROPHIL,[1],12%
same,NUCLEATED RED BLOOD CELLS,[1],0.67 /100WBC
same,PLATELET COUNT,[1],1188.5 x10E3/uL
same,ALANINE AMINOTRANSFERASE,[1],54.83 u/L
same,ALBUMIN,[1],4.22 G/DL
same,ALKALINE PHOSPHATASE,[1],427.67 u/L
same,ASPARTATE AMINOTRANSFERASE,[1],86.5 u/L
same,BLOOD UREA NITROGEN,[1],15.33 mg/dL
same,CARBON DIOXIDE,[1],24.83 mmol/L
same,CHLORIDE,[1],102.33 MEQ/L
same,CHOLESTEROL,[1],71.67 mg/dL
same,CREATINE PHOSPHOKINASE,[1],442.5 u/L
same,CREATININE,[1],0.19 mg/dL
same,GLUCOSE,[1],160.67 mg/dL
same,LACTATE DEHYDROGENASE,[1],236.5 u/L
same,LIPASE,[1],9 u/L
same,PHOSPHORUS,[1],11.97 mg/dL
same,POTASSIUM,[1],6.2 MEQ/L
same,SODIUM,[1],142.85 MEQ/L
same,TOTAL BILIRUBIN,[1],0.2 mg/dL
same,TOTAL PROTEIN,[1],5.8 G/DL
same,URIC ACID,[1],1.3 mg/dL
same,ABSOLUTE BASOPHIL,[2],0 CELLS/uL
same,ABSOLUTE EOSINOPHIL,[2],114.5 CELLS/uL
same,ABSOLUTE LYMPHOCYTE,[2],14614 CELLS/uL
same,ABSOLUTE MONOCYTE,[2],173 CELLS/uL
same,ABSOLUTE SEGMENTED NEUTROPHIL,[2],1048.5 CELLS/uL
same,BASOPHIL,[2],0%
same,EOSINOPHIL,[2],0.67%
same,ERYTHROCYTE COUNT,[2],5.66 x10E6/uL
same,HEMATOCRIT,[2],35.52%
same,HEMOGLOBIN,[2],14.27 G/DL
same,LEUKOCYTE COUNT,[2],15.95 x10E3/uL
same,LYMPHOCYTE,[2],91.33%
same,MEAN CORPUSCULAR HEMOGLOBIN,[2],25.23 pg
same,MEAN CORPUSCULAR HEMOGLOBIN CONCENTRATION,[2],40.2 G/DL
same,MEAN CORPUSCULAR VOLUME,[2],62.7 fL
same,MONOCYTE,[2],1.17%
same,NEUTROPHIL,[2],6.83%
same,NUCLEATED RED BLOOD CELLS,[2],0.33 /100WBC
same,PLATELET COUNT,[2],1229 x10E3/uL
same,ALANINE AMINOTRANSFERASE,[2],58.67 u/L
same,ALBUMIN,[2],4.32 G/DL
same,ALKALINE PHOSPHATASE,[2],382.5 u/L
same,ASPARTATE AMINOTRANSFERASE,[2],81.67 u/L
same,BLOOD UREA NITROGEN,[2],17.67 mg/dL
same,CARBON DIOXIDE,[2],27.17 mmol/L
same,CHLORIDE,[2],102.33 MEQ/L
same,CHOLESTEROL,[2],63.67 mg/dL
same,CREATINE PHOSPHOKINASE,[2],227.67 u/L
same,CREATININE,[2],0.23 mg/dL
same,GLUCOSE,[2],155.33 mg/dL
same,LACTATE DEHYDROGENASE,[2],146.5 u/L
same,LIPASE,[2],10.67 u/L
same,PHOSPHORUS,[2],11.93 mg/dL
same,POTASSIUM,[2],6.85 MEQ/L
same,SODIUM,[2],143.95 MEQ/L
same,TOTAL BILIRUBIN,[2],0.18 mg/dL
same,TOTAL PROTEIN,[2],6.02 G/DL
same,URIC ACID,[2],1.63 mg/dL
same,ABSOLUTE BASOPHIL,[3],0 CELLS/uL
same,ABSOLUTE EOSINOPHIL,[3],0 CELLS/uL
same,ABSOLUTE LYMPHOCYTE,[3],12123 CELLS/uL
same,ABSOLUTE MONOCYTE,[3],372 CELLS/uL
same,ABSOLUTE SEGMENTED NEUTROPHIL,[3],1505 CELLS/uL
same,BASOPHIL,[3],0%
same,EOSINOPHIL,[3],0%
same,ERYTHROCYTE COUNT,[3],5.61 x10E6/uL
same,HEMATOCRIT,[3],34.6%
same,HEMOGLOBIN,[3],13.67 G/DL
same,LEUKOCYTE COUNT,[3],14 x10E3/uL
same,LYMPHOCYTE,[3],86.67%
same,MEAN CORPUSCULAR HEMOGLOBIN,[3],24.47 pg
same,MEAN CORPUSCULAR HEMOGLOBIN CONCENTRATION,[3],39.53 G/DL
same,MEAN CORPUSCULAR VOLUME,[3],61.9 fL
same,MONOCYTE,[3],2.67%
same,NEUTROPHIL,[3],10.67%
same,NUCLEATED RED BLOOD CELLS,[3],0.33 /100WBC
same,PLATELET COUNT,[3],1267.33 x10E3/uL
same,ALANINE AMINOTRANSFERASE,[3],52 u/L
same,ALBUMIN,[3],4.13 G/DL
same,ALKALINE PHOSPHATASE,[3],425.33 u/L
same,ASPARTATE AMINOTRANSFERASE,[3],87 u/L
same,BLOOD UREA NITROGEN,[3],15.67 mg/dL
same,CARBON DIOXIDE,[3],26.67 mmol/L
same,CHLORIDE,[3],101.33 MEQ/L
same,CHOLESTEROL,[3],69 mg/dL
same,CREATINE PHOSPHOKINASE,[3],308 u/L
same,CREATININE,[3],0.17 mg/dL
same,GLUCOSE,[3],148.33 mg/dL
same,LACTATE DEHYDROGENASE,[3],190.67 u/L
same,LIPASE,[3],9 u/L
same,PHOSPHORUS,[3],12.47 mg/dL
same,POTASSIUM,[3],6.99 MEQ/L
same,SODIUM,[3],143.93 MEQ/L
same,TOTAL BILIRUBIN,[3],0.17 mg/dL
same,TOTAL PROTEIN,[3],5.8 G/DL
same,URIC ACID,[3],1.77 mg/dL
same,ABSOLUTE BASOPHIL,[4],0 CELLS/uL
same,ABSOLUTE EOSINOPHIL,[4],0 CELLS/uL
same,ABSOLUTE LYMPHOCYTE,[4],16690.33 CELLS/uL
same,ABSOLUTE MONOCYTE,[4],278.67 CELLS/uL
same,ABSOLUTE SEGMENTED NEUTROPHIL,[4],997.67 CELLS/uL
same,BASOPHIL,[4],0%
same,EOSINOPHIL,[4],0%
same,ERYTHROCYTE COUNT,[4],5.66 x10E6/uL
same,HEMATOCRIT,[4],34.53%
same,HEMOGLOBIN,[4],14.03 G/DL
same,LEUKOCYTE COUNT,[4],17.97 x10E3/uL
same,LYMPHOCYTE,[4],93%
same,MEAN CORPUSCULAR HEMOGLOBIN,[4],24.87 pg
same,MEAN CORPUSCULAR HEMOGLOBIN CONCENTRATION,[4],40.63 G/DL
same,MEAN CORPUSCULAR VOLUME,[4],61.17 fL
same,MONOCYTE,[4],1.33%
same,NEUTROPHIL,[4],5.67%
same,NUCLEATED RED BLOOD CELLS,[4],0.67 /100WBC
same,PLATELET COUNT,[4],1272 x10E3/uL
same,ALANINE AMINOTRANSFERASE,[4],53.33 u/L
same,ALBUMIN,[4],4.1 G/DL
same,ALKALINE PHOSPHATASE,[4],315 u/L
same,ASPARTATE AMINOTRANSFERASE,[4],72.33 u/L
same,BLOOD UREA NITROGEN,[4],18.33 mg/dL
same,CARBON DIOXIDE,[4],27.33 mmol/L
same,CHLORIDE,[4],100.33 MEQ/L
same,CHOLESTEROL,[4],84 mg/dL
same,CREATINE PHOSPHOKINASE,[4],186.33 u/L
same,CREATININE,[4],0.19 mg/dL
same,GLUCOSE,[4],146 mg/dL
same,LACTATE DEHYDROGENASE,[4],126.33 u/L
same,LIPASE,[4],10 u/L
same,PHOSPHORUS,[4],12.8 mg/dL
same,POTASSIUM,[4],6.96 MEQ/L
same,SODIUM,[4],145.2 MEQ/L
same,TOTAL BILIRUBIN,[4],0.2 mg/dL
same,TOTAL PROTEIN,[4],5.8 G/DL
same,URIC ACID,[4],1.43 mg/dL
